In patent US20200392116A1, “SUBSTITUTED HETEROCYCLES AS c-MYC TARGETING AGENTS” (NORTHWESTERN UNIVERSITY, priority 2019, published 2020):

Experiment: Potency code of Table 2 (assay not stated)

Structure (SMILES) | Potency code
CCc1ccc(Oc2cn(C)nc2-c2ccc(OCc3ccc(Cl)cc3)cc2O)cc1 [NUCC-0176260] | + (>40 +)
CN/N=C(/C)c1ccc(-c2c(OCc3ccc(Cl)cc3)ccc(-c3cc(C(F)(F)F)n(C)n3)c2O)cc1 [NUCC-0198397] | + (>40 +)
N#Cc1ccc(COc2ccc(-c3cc(C(F)(F)F)[nH]n3)c(O)c2-c2ccc(Cl)c(C(F)(F)F)c2)cc1 [NUCC-0201911] | + (>40 +)
CN/N=C(\C)c1cccc(-c2c(OCc3ccc(Cl)cc3)ccc(-c3cc(C(F)(F)F)n(C)n3)c2O)c1 [NUCC-0198405] | + (>40 +)
Nc1ccc(COc2ccc(-c3cc(C(F)(F)F)n[nH]3)c(O)c2-c2cncc(C(F)(F)F)c2)cc1 [NUCC-0201661] | + (>40 +)
CC(C)CCOc1ccc(-c2cc(C(F)(F)F)[nH]n2)c(O)c1-c1cncc(C(F)(F)F)c1 [NUCC-0201636] | + (>40 +)
Cc1ccc(-c2cn(C)nc2-c2ccc(OCc3ccc(Cl)cc3)cc2O)cc1 [NUCC-0196346] | + (>40 +)
c1ccc(COc2ccccc2-c2nn[nH]c2-c2ccccc2)cc1 [NUCC-0200722] | + (>40 +)
Cn1nc(C(F)(F)F)cc1-c1ccc(OCc2ccc(Cl)cc2)c(-c2ccccc2OC(F)(F)F)c1O [NUCC-0198410] | + (>40 +)
CCc1[nH]nc(-c2ccc(OCc3ccc(Cl)cc3)cc2O)c1-c1ccccc1 [NUCC-0198301] | + (>40 +)
Cc1[nH]nc(-c2ccc(OCc3ccc(F)cc3)cc2O)c1Oc1ccccc1 [NUCC-0176259] | + (>40 +)
Cc1[nH]nc(-c2ccc(OCc3cnn(C)c3)cc2O)c1Oc1ccccc1 [NUCC-0176249] | + (>40 +)
Cn1nc(C(F)(F)F)cc1-c1ccc(OCc2ccc(Cl)cc2)c(-c2cccc(C(F)(F)F)c2)c1O [NUCC-0200974] | + (>40 +)
COc1cccc(COc2ccc(-c3n[nH]cc3Oc3cc(C)ccc3C)c(O)c2)c1 [NUCC-0196288] | + (>40 +)
Cn1cc(-c2ccc(OCc3ccc(Cl)cc3)cc2N)c(C(F)(F)F)n1 [NUCC-0200746] | + (>40 +)
COc1ccc(-c2c(-c3ccc(OCc4ccc(Cl)cc4)cc3O)n[nH]c2C(F)(F)F)cc1 [NUCC-0196312] | + (>40 +)
Cc1c(-c2ccccc2)c(-c2ccc(OCc3ccc(Cl)cc3)cc2O)nn1C [NUCC-0198300] | + (>40 +)
Cn1nc(C(F)(F)F)cc1-c1ccc(OCCc2ccc(Cl)cc2)c(-c2cc(C(F)(F)F)cc(C(F)(F)F)c2)c1O [NUCC-0201025] | ++ (30-40 ++)
CCCCCCOc1ccc(-c2cc(C(F)(F)F)n(C)n2)c(O)c1-c1cncc(C#N)c1 [NUCC-0201212] | + (>40 +)
CCCOc1ccc(-c2cc(C(F)(F)F)n[nH]2)c(O)c1-c1cc(C(F)(F)F)cc(C(F)(F)F)c1 [NUCC-0201197] | +++ (10-30 +++)
Cn1nc(C(F)(F)F)cc1-c1ccc(OCc2ccc(Cl)cc2)cc1N [NUCC-0200745] | + (>40 +)
Oc1c(-c2cc(C(F)(F)F)n[nH]2)ccc(OCc2ccc(Cl)cc2)c1-c1cncc(F)c1 [NUCC-0201040] | +++ (10-30 +++)
COc1ccc(CCOc2ccc(-c3cc(C(F)(F)F)n(C)n3)c(O)c2-c2cc(C(F)(F)F)cc(C(F)(F)F)c2)cc1 [NUCC-0201029] | + (>40 +)
Cn1nc(C(F)(F)F)cc1-c1ccc(OCc2ccc(Cl)cc2)c(-c2ccc(F)c(C(F)(F)F)c2)c1O [NUCC-0200735] | + (>40 +)
Cn1nc(-c2ccc(OCc3ccc(Cl)cc3)c(-c3cccnc3)c2O)cc1C(F)(F)F [NUCC-0196364] | + (>40 +)

Structure (SMILES) | Potency code
Oc1cc(Nc2ccc(-n3ccnc3)cc2)ccc1-c1cc(C(F)(F)F)[nH]n1 [NUCC-0200569] | + (>40 +)
CCCCOc1ccc(-c2cc(C(F)(F)F)n(C)n2)c(O)c1-c1cc(C(F)(F)F)cc(C(F)(F)F)c1 [NUCC-0201652] | + (>40 +)
N#Cc1cccc(-c2c(C(F)(F)F)n[nH]c2-c2cc(OCc3ccc(Cl)cc3)ccc2O)c1 [NUCC-0200571] | + (>40 +)
COC(=O)c1cc(-c2ccc(OCc3ccc(Cl)cc3)c(-c3cc(C(F)(F)F)cc(C(F)(F)F)c3)c2O)nn1C [NUCC-0200970] | + (>40 +)
Cn1nc(C(F)(F)F)cc1-c1ccc(OCc2ccc(Cl)cc2)c(-c2cccc(C(N)=O)c2)c1O [NUCC-0198402] | + (>40 +)
Cn1nc(-c2ccc(OCc3ccc([N+](=O)[O-])cc3)c(-c3cc(C(F)(F)F)cc(C(F)(F)F)c3)c2O)cc1C(F)(F)F [NUCC-0201649] | + (>40 +)
CCc1ccc(Oc2c[nH]nc2-c2ccc(OCc3ccc(F)cc3)cc2O)cc1 [NUCC-0176257] | + (>40 +)
CCCCOc1ccc(-c2cc(C(F)(F)F)nn2C)c(O)c1-c1ccc(Cl)c(C(C)(C)F)c1 [NUCC-0201226] | +++ (10-30 +++)
N#Cc1cccc(-c2c(OCc3ccc(Cl)cc3)ccc(-c3cc(C(F)(F)F)[nH]n3)c2O)c1 [NUCC-0198398] | ++++ (<10 ++++)
Cn1nc(-c2ccc(OCc3ccc(Cl)cc3)c(-c3cccc(C#N)c3)c2O)cc1C(N)=O [NUCC-0200558] | ++++ (<10 ++++)
CC(C)CCOc1ccc(-c2cc(C(F)(F)F)n(C)n2)c(O)c1-c1cncc(C(F)(F)F)c1 [NUCC-0201211] | + (>40 +)
NCCCOc1ccc(-c2cc(C(F)(F)F)n[nH]2)c(O)c1-c1ccc(Cl)c(C(F)(F)F)c1 [NUCC-0201646] | + (>40 +)
Oc1c(-c2cc(C(F)(F)F)[nH]n2)ccc(OCc2ccc(Cl)cc2)c1Cc1ccccc1Cl [NUCC-0200490] | + (>40 +)
Cn1nc(-c2ccc(OCc3ccc(Cl)cc3)c(Br)c2O)cc1C(F)(F)F [NUCC-0198408] | + (>40 +)
Oc1c(-c2cc(C(F)(F)F)[nH]n2)ccc(OCc2ccc(Cl)cc2)c1-c1ccc(C(F)(F)F)c(Cl)c1 [NUCC-0200728] | + (>40 +)
Cn1nc(-c2ccc(NCc3ccc(Cl)cc3)cc2O)cc1C(F)(F)F [NUCC-0200494] | + (>40 +)
Cn1nc(-c2ccc(OCc3ccc(Cl)cc3)c(-c3cccc(C(F)(F)F)c3)c2O)cc1C(F)(F)F [NUCC-0200731] | + (>40 +)
Cn1cc(-c2ccccc2)c(-c2ccc(OCc3ccc(Cl)cc3)cc2O)n1 [NUCC-0198294] | + (>40 +)
Cn1nc(C(F)(F)F)cc1-c1ccc(OCc2ccc(Cl)cc2)c(-c2cncc(C#N)c2)c1O [NUCC-0201632] | +++ (10-30 +++)
Cc1[nH]nc(-c2ccc(OCCc3ccc(Cl)cc3)cc2O)c1Oc1ccccc1 [NUCC-0176252] | + (>40 +)
Cc1cc(C)c(-c2c[nH]nc2-c2ccc(OCc3ccc(Cl)cc3)cc2O)c(C)c1 [NUCC-0198359] | ++ (30-40 ++)
Cn1nc(-c2ccc(OCc3ccc(Cl)cc3)cc2O)c(Oc2cccc(F)c2)c1C(F)(F)F [NUCC-0196302] | + (>40 +)
Cc1ccc(C)c(Oc2cn(C)nc2-c2ccc(OCc3ccc4ccccc4c3)cc2O)c1 [NUCC-0196291] | + (>40 +)
CC(C)COc1ccc(-c2cc(C(F)(F)F)n[nH]2)c(O)c1-c1cc(C(C)(F)F)cc(C(F)(F)F)c1 [NUCC-0201030] | + (>40 +)
Cc1cc(C)cc(-c2cnn(C)c2-c2ccc(OCc3ccc(Cl)cc3)cc2O)c1 [NUCC-0198354] | + (>40 +)
